# US20260083703A1, “INDOLINE DERIVATIVES AS SEROTONERGIC AGENTS USEFUL FOR THE TREATMENT OF DISORDERS RELATED THERETO” (MINDSET PHARMA INC., priority 2022, published 2026)
# Several values for one entry are separate records, joined by “and”; a condition that tells them apart may be missing. Identical values can stand only once.
# Key:
# [1] = molecular target: T1, human 5-HT2A (h5-HT2A) receptor (Homo sapiens, UniProt P28223); assay: FLIPR assay, human 5-HT2A, agonist mode; type: cell-based
# T1 construct: expressed in transfected cells; grown under G418 and hygromycin B selection
# T1 sequence (P28223 whole entry): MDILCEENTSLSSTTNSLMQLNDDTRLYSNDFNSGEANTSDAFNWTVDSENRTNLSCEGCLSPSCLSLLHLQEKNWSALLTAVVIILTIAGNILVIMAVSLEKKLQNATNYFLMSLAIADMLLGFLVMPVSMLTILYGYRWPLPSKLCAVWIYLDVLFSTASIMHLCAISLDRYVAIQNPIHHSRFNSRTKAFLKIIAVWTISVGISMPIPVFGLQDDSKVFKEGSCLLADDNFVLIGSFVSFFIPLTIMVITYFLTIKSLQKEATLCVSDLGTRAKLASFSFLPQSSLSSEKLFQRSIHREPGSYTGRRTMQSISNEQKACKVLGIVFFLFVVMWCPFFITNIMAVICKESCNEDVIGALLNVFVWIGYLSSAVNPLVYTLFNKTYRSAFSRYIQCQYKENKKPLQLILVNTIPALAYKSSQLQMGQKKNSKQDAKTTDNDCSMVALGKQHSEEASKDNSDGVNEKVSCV
# Procedure: I. Assessment of the Effect of Exemplary Compounds of Formula I Targeting on Human 5-HT2A (h5-HT2A) Receptor Under Agonist Mode:
# I.c. Experimental Methods and Procedures: • 1. Cells were cultured in cell culture medium (DMEM containing 10% FBS, 1×penicillin-streptomycin 300 μg/ml G418 and 100 μg/ml hygromycin B) at 37° C., 5% (v/v) CO2. • 2. One day before the assays, the cells were detached using TrypLE™ Express and cells were counted using cell counter. Only cells with >85% viability were used for the assay. • 3. 20000 cells/well were seeded in 30 μl/well culture medium to a 384-well cell plate and cells were incubated overnight at 37° C., 5% (v/v) CO2. • 4. On the assay day, 2×dye solution was prepared following the manual of the FLIPR® Calcium 6 Assay Kit: i. The dye was diluted with assay buffer (20 mM HEPES in 1×HBSS, PH7.4); ii. Probenecid was added to the final concentration of 5 mM; iii. Vortex vigorously for 1-2 minutes. • 5. Medium was removed from cell plate by flicking the cell plate on towel papers. • 6. 10 μl of assay buffer and 10 μl of 2×dye solution was added to each well of the cell plate. • 7. The cell plate was placed on plate shaker, the plate was agitated at 600 rpm for 2 minutes. The plate was incubated at 37° C. for 2 hours followed by additional 15-minute incubation at 25° C. • 8. 3×compound in assay buffer was prepared: a. Reference compounds were diluted to required concentration with DMSO. The compounds were added to a 384-well compound plate; b. Serial dilutions were performed; c. 10 mM test compounds were added to the compound plate, and 3-fold serial dilutions were performed. d. Transfer 60 nl/well of compounds from source plate to a 384-well compound plate (Corning, 3657) by using an Echo; e. Add 20 μl/well assay buffer to the compound plate; f. Mix the plate on plate shaker for 2 mins; • 9. The cell plate, compound plate and tips were put into FLIPR, 10 μl of 3× compound was transferred to the cell plate per well with FLIPR.
# • i. The normalized fluorescence reading (RFU) was calculated as shown below, where Fmax and Fmin stand for maximum and minimum of calcium signal during defined time window: RFU=Fmax−Fmin. • ii. Calculate the percentage activation using following equation:
# [formula] • Iii. Calculate EC50 by fitting % activation against log of compound concentrations with Hill equation using XLfit.
# [2] = Liver microsomes stability, human; settings: human
# [3] = Liver microsomes stability, rat
# [4] = Liver microsomes stability, mouse
# Male, C57BL/6J mice = assay: Mouse head twitch; type: in vivo; settings: for other behavioural and somatic signs accompanying head twitches: psilocybin at 3 and 10 mg/kg, 5-MeO DMT over 3-30 mg/kg
# Procedure: The effect of different doses of representative compounds of Formula I are evaluated on head-twitch response (HTR) and other behavioural responses as behavior-based models of psychedelic activity.
# Male, C57BL/6J mice (body weight range 20-30 g) were dosed with the appropriate dose of test article, and following a 1-minute pre-treatment time, placed in individual observation chambers. Animals were visually assessed for the incidence head twitches continuously over a 1 hr period. Head twitches were defined as a rapid jerk of the head which was not elicited by an external tactile stimulus (Come and Pickering, Psychopharmacologia, 1967, 11(1): 65-78). Each head twitch was individually counted by a trained observer, and the data expressed as the mean±SEM of 6-10 mice per group. Mice were used in a single experiment only.
smiles,measurement,setting,value
"COc1cc2c(cc1OC)C(C[C@H]1CCCN1C)CN2 (stereo partly drawn) [(R) I-81, 5,6-Dimethoxy-3-(((R)-I-methylpyrrolidin-2-yl)methyl)indoline]",5-HT2A (FLIPR) RFU@10 μM,[1],294 RFU
"CN1CCC[C@@H]1C[C@H]1CNc2ccc(F)cc21 [(R),(R)-I-47, (R)-5-fluoro-3-(((R)-I-methylpyrrolidin-2-yl)methyl)indoline]",Predicted hepatic CL,[2],2.74 mL/min/kg
same,Remaining Percentage,"[2]; With NADPH, 0 min",100.00%
same,Remaining Percentage,"[2]; With NADPH, 30 min",108.74%
same,Remaining Percentage,"[2]; With NADPH, 60 min",92.73%
same,Remaining Percentage,"[2]; Without NADPH, 0 min",100.00%
same,Remaining Percentage,"[2]; Without NADPH, 30 min",102.35%
same,Remaining Percentage,"[2]; Without NADPH, 60 min",95.13%
same,CLint scaled at 2 μM,[2]; pooled human liver microsomes,3.15 mL/min/kg
same,half-life at 2 μM,[2]; pooled human liver microsomes,9.19 h
same,microsomal CLint at 2 μM,[2]; pooled human liver microsomes,2.51 µL/min/mg
same,EC50,[1],91 nM
same,5-HT2A (FLIPR) RFU@10 μM,[1],787 RFU
same,Predicted hepatic CL,[3],45.31 mL/min/kg
same,Remaining Percentage,"[3]; With NADPH, 0 min",100.00%
same,Remaining Percentage,"[3]; With NADPH, 30 min",5.12%
same,Remaining Percentage,"[3]; With NADPH, 60 min",1.45%
same,Remaining Percentage,"[3]; Without NADPH, 0 min",100.00%
same,Remaining Percentage,"[3]; Without NADPH, 30 min",108.30%
same,Remaining Percentage,"[3]; Without NADPH, 60 min",100.00%
same,CLint scaled at 2 μM,[3]; rat liver microsomes,253 mL/min/kg
same,half-life at 2 μM,[3]; rat liver microsomes,9.82 min
same,microsomal CLint at 2 μM,[3]; rat liver microsomes,141 µL/min/mg
same,Predicted hepatic CL,[4],13.24 mL/min/kg
same,Remaining Percentage,"[4]; With NADPH, 0 min",100.00%
same,Remaining Percentage,"[4]; With NADPH, 30 min",114.03%
same,Remaining Percentage,"[4]; With NADPH, 60 min",89.90%
same,Remaining Percentage,"[4]; Without NADPH, 0 min",100.00%
same,Remaining Percentage,"[4]; Without NADPH, 30 min",114.71%
same,Remaining Percentage,"[4]; Without NADPH, 60 min",87.16%
same,CLint scaled at 2 μM,"[4]; male, microsomes",15.5 mL/min/kg
same,half-life at 2 μM,"[4]; male, microsomes",6.51 h
same,microsomal CLint at 2 μM,"[4]; male, microsomes",3.55 µL/min/mg
"[2H]C([2H])([2H])N1CCC[C@@H]1CC1CNc2cc(OC)c(OC)cc21 (stereo partly drawn) [(R)-I-82, 5,6-dimethoxy-3-(((R)-I-(methyl-d3)pyrrolidin-2-yl)methyl)indoline]",EC50,[1],1560 nM
same,5-HT2A (FLIPR) RFU@10 μM,[1],479 RFU
"COc1cccc2c1NCC2C[C@H]1CCCN1C (stereo partly drawn) [(R)-I-95, 7-Methoxy-3-(((R)-I-methylpyrrolidin-2-yl)methyl)indoline]",5-HT2A (FLIPR) RFU@10 μM,[1],321 RFU
"CN1CCC[C@@H]1C[C@@H]1CNc2ccc(F)cc21 [(S),(R)-I-47, (S)-5-fluoro-3-(((R)-I-methylpyrrolidin-2-yl)methyl)indoline]",EC50,[1],76 nM
same,5-HT2A (FLIPR) RFU@10 μM,[1],797 RFU
"COc1ccc2c(c1)C(C[C@@H]1CCCN1C)CN2 (stereo partly drawn) [(S)-I-54, 5-Methoxy-3-(((S)-I-methylpyrrolidin-2-yl)methyl)indoline]",5-HT2A (FLIPR) RFU@10 μM,[1],444 RFU
COc1ccc2[nH]cc(CCN(C)C)c2c1 [Compound 5-MeO-DMT],head twitch response (mean head twitches over 1 hr),"Male, C57BL/6J mice; 1 mg/kg SC",3.0
same,head twitch response (mean head twitches over 1 hr),"Male, C57BL/6J mice; 3 mg/kg SC",4.2
same,head twitch response (mean head twitches over 1 hr),"Male, C57BL/6J mice; 10 mg/kg SC",7.8
same,head twitch response (mean head twitches over 1 hr),"Male, C57BL/6J mice; 30 mg/kg SC",12.3
same,head twitch response over the dose range tested,"Male, C57BL/6J mice; SC, psilocybin 0.1-10, 5-MeO DMT 1-30, (R)-I-54 1-60 mg/kg",monotonic increase in head twitches
same,other behavioural and somatic signs accompanying head twitches,"Male, C57BL/6J mice; SC","other behavioural signs associated with 5-HT syndrome (forepaw treading, straub tail, body twitches, backwards walking) emerged"
"CN(C)CCc1c[nH]c2ccccc12 [DMT, N,N-dimethyltryptamine, reference compound]",5-HT2A (FLIPR) RFU@10 μM,[1],381 RFU
"CN(C)CCc1c[nH]c2cccc(O)c12 [Psilocin, reference compound]",5-HT2A (FLIPR) RFU@10 μM,[1],416 RFU and 308 RFU
CN(C)CCc1c[nH]c2cccc(OP(=O)(O)O)c12 [Psilocybin],head twitch response (mean head twitches over 1 hr),"Male, C57BL/6J mice; 0.1 mg/kg SC",4.8
same,head twitch response (mean head twitches over 1 hr),"Male, C57BL/6J mice; 0.3 mg/kg SC",6.3
same,head twitch response (mean head twitches over 1 hr),"Male, C57BL/6J mice; 1 mg/kg SC",16.3
same,head twitch response (mean head twitches over 1 hr),"Male, C57BL/6J mice; 3 mg/kg SC",7.8
same,head twitch response (mean head twitches over 1 hr),"Male, C57BL/6J mice; 10 mg/kg SC",5.5
same,dose of peak head twitch response,"Male, C57BL/6J mice; SC",1 mg/kg
same,other behavioural and somatic signs accompanying head twitches,"Male, C57BL/6J mice; SC",decreased locomotion and decreased core body temperature
